Experimental data from ChEMBL document CHEMBL3882246, “Benzoxazole kinase inhibitors and methods of use” (2010).
Calls of active or inactive are those of the source. The calls are words filed in the database; no cut-off is given here.

Legend:
[1] = Antiproliferative activity against human PC3 cells measured after 72 hrs by Alamar blue dye-based fluorescence analysis; format: functional, cell-based, PC-3; settings: for EC50: Homo sapiens, PC-3, 72 h
[2] = Antiproliferative activity against human HT1080 cells measured after 72 hrs by Alamar blue dye-based fluorescence analysis; format: functional, cell-based; settings: ht-1080
[3] = Antiproliferative activity against human SKHEP1 cells measured after 72 hrs by Alamar blue dye-based fluorescence analysis; format: functional, cell-based; settings: sk-hep1
[4] = Antiproliferative activity against human 143B cells measured after 72 hrs by Alamar blue dye-based fluorescence analysis; format: functional, cell-based
[5] = Antiproliferative activity against human BT474 cells measured after 72 hrs by Alamar blue dye-based fluorescence analysis; format: functional, cell-based; settings: bt-474
[6] = Antiproliferative activity against human MCF7-218 cells measured after 72 hrs by Alamar blue dye-based fluorescence analysis; format: functional, cell-based
[7] = Antiproliferative activity against human MCF7-FL cells measured after 72 hrs by Alamar blue dye-based fluorescence analysis; format: functional, cell-based
[8] = Antiproliferative activity against human MIAPaCa2 cells measured after 72 hrs by Alamar blue dye-based fluorescence analysis; format: functional, cell-based; settings: mia paca-2
[9] = Antiproliferative activity against human BxPC3 cells measured after 72 hrs by Alamar blue dye-based fluorescence analysis; format: functional, cell-based; settings: bxpc-3
[10] = Antiproliferative activity against human 786-O cells measured after 72 hrs by Alamar blue dye-based fluorescence analysis; format: functional, cell-based; settings: 786-0
[11] = Antiproliferative activity against human HepG2 cells measured after 72 hrs by Alamar blue dye-based fluorescence analysis; format: functional, cell-based
[12] = Antiproliferative activity against human HCT116 cells measured after 72 hrs by Alamar blue dye-based fluorescence analysis; format: functional, cell-based; settings: hct-116
[13] = Antiproliferative activity against human COLO205 cells measured after 72 hrs by Alamar blue dye-based fluorescence analysis; format: functional, cell-based; settings: colo 205
[14] = Antiproliferative activity against human LNCAP cells measured after 72 hrs by Alamar blue dye-based fluorescence analysis; format: functional, cell-based
[15] = tested on: U-87MG ATCC; test: Inhibition of mTORC1/2 in human U87 cells assessed as inhibition of Akt-phosphorylation at S473 residue by Western blot analysis; format: cell-based
[16] = target: Ribosomal protein S6 kinase beta-1 (Homo sapiens) (UniProt P23443); test: Inhibition of mTOR pS6K in human U87 cells assessed as inhibition of 4EBP1 phosphorylation by Western blot analysis; format: cell-based; settings: U-87MG ATCC
Sequence of Ribosomal protein S6 kinase beta-1 (Homo sapiens) (P23443 whole entry, looked up): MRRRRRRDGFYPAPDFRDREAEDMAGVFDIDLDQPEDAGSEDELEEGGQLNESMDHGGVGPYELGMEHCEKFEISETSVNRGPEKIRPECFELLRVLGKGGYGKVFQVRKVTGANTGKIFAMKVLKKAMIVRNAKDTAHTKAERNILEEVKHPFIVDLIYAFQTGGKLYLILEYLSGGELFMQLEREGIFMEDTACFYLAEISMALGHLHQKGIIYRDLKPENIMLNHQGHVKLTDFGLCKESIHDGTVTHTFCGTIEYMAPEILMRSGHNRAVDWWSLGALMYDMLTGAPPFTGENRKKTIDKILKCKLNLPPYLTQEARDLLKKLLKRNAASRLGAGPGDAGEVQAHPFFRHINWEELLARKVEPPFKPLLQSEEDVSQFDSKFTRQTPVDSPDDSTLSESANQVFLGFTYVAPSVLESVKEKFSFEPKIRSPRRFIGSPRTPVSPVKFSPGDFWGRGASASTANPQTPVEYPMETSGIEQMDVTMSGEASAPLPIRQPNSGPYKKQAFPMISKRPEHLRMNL

[17] = Toxicity in mouse xenografted with human U87 cells assessed as weight loss at 0.3 to 3 mg/kg measured after 14 days; format: organism-based, U-87MG ATCC; settings: in vivo, 336 h
[18] = tested on: U-87MG ATCC; test: Antitumor activity against human U87 cells xenografted in mouse assessed as tumor growth inhibition at 0.3 to 3 mg/kg measured after 14 days; format: functional, organism-based
[19] = target: Ribosomal protein S6 kinase beta-1 (Homo sapiens) (UniProt P23443); test: Inhibition of mTOR pS6K in human U87 cells assessed as inhibition of RAS40 phosphorylation by Western blot analysis; format: cell-based; settings: U-87MG ATCC
[20] = target: Serine/threonine-protein kinase mTOR (Homo sapiens) (UniProt P42345); test: Inhibition of mTOR in human U87 cells assessed as reduction in pAKT phosphorylation at residue […] by Western blot method; format: cell-based; settings: U-87MG ATCC
[21] = target: Serine/threonine-protein kinase mTOR (Homo sapiens) (UniProt P42345); test: Inhibition of mTOR in human U87 cells assessed as reduction in p4EBP1 phosphorylation by Western blot method; format: cell-based; settings: U-87MG ATCC
[22] = target: Serine/threonine-protein kinase mTOR (Homo sapiens) (UniProt P42345); test: Inhibition of mTOR in human U87 cells assessed as reduction in pRAS40 phosphorylation by Western blot method; format: cell-based; settings: U-87MG ATCC

## CC(C)n1cc(-c2ccc3oc(N)nc3c2)c2c(N)ncnc21
[1]
  EC50: < 0.1 µM

## CC(=O)Nc1nc2cc(-c3nn(C(C)C)c4ncnc(N)c34)ccc2o1
[1]
  EC50: < 1 µM

## CC(=O)Nc1noc2cc(-c3nn(C(C)C)c4ncnc(N)c34)ccc12
[1]
  EC50: > 10 µM

## CC(=O)N1CCC(n2nc(-c3ccc4oc(N)nc4c3)c3c(N)ncnc32)CC1
[1]
  EC50: < 10 µM

## CC(C)n1nc(-c2ccc3c(N)noc3c2)c2c(N)ncnc21
[1]
  EC50: > 10 µM

## Nc1nc2cc(-c3nn(C4CCC(N5CCOCC5)CC4)c4ncnc(N)c34)ccc2o1 (configuration not stated)
[1]
  EC50: < 1 µM

## CC(C)n1nc(-c2ccc3onc(N)c3c2)c2c(N)ncnc21
[1]
  EC50: > 10 µM

## Nc1nc2cc(-c3cn(C4CCOCC4)c4ncnc(N)c34)ccc2o1
[1]
  EC50: < 0.1 µM

## CC(C)n1nc(-c2ccc3nc(N)oc3c2)c2c(N)ncnc21
[1]
  EC50: < 10 µM

## Nc1nc2cc(-c3nn(C4CCOCC4)c4ncnc(N)c34)ccc2o1
[1]
  EC50: < 0.1 µM

## COc1cccc2c1C(=O)c1c(O)c3c(c(O)c1C2=O)C[C@@](O)(C(=O)CO)C[C@@H]3O[C@H]1C[C@H](N)[C@H](O)[C@H](C)O1 [DOXORUBICIN]
[2]
  IC50: Active
[3]
  IC50: Active
[4]
  IC50: Active
[5]
  IC50: Active
[6]
  IC50: Active
[7]
  IC50: Active

## O=c1[nH]cc(F)c(=O)[nH]1 [FLUOROURACIL]
[8]
  IC50: Active
[9]
  IC50: Active
[10]
  IC50: Active
[11]
  IC50: Active
[12]
  IC50: Active

## CCc1c2c(nc3ccc(OC(=O)N4CCC(N5CCCCC5)CC4)cc13)-c1cc3c(c(=O)n1C2)COC(=O)[C@]3(O)CC [IRINOTECAN]
[1]; pc-3
  IC50: Active
[13]
  IC50: Active

## CC(=O)O[C@H]1C(=O)[C@@]2(C)[C@H]([C@H](OC(=O)c3ccccc3)[C@]3(O)C[C@H](OC(=O)[C@H](O)[C@@H](NC(=O)c4ccccc4)c4ccccc4)C(C)=C1C3(C)C)[C@]1(OC(C)=O)CO[C@@H]1C[C@@H]2O [PACLITAXEL]
[14]
  IC50: Active

## CC(C)n1nc(-c2ccc3oc(N)nc3c2)c2c(N)ncnc21 [SAPANISERTIB]
[15]
  inhibition: Dose-dependent effect
[16]
  inhibition: Active
[17]
  Activity: Non-Toxic
[18]
  growth inhibition (GI): Active
[19]
  inhibition: Active
[20]
  inhibition: Active
[21]
  inhibition: Active
[22]
  inhibition: Active
